# Assay results published in patent publication US9067922B2, “Chemical compounds” (Pfizer Limited, priority 2013, dated 2015).
# Molecular target: URAT-1 transporter (Homo sapiens (Human), UniProt Q96S37)
# Experiment: URAT-1 inhibitor activity: [14C]-uric acid uptake in CHO-URAT1(L)GFP#8 (CHO#8) cells, scintillation proximity
# Assay type: cell-based
# Conditions: inhibition of [14C]-uric acid (30 nM) uptake into CHO#8 cells; compound 0 to 10 μM; 4 parameter logistic fit
# Method in brief: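 CHO cells stably expressing human URAT1 long isoform–eGFP fusion, pre-incubated 1 h in chloride-containing buffer pH 7.4, then given 30 nM [14C]-uric acid with compound (0–10 μM, 0.25% DMSO) in chloride-free gluconate buffer pH 7.4. Uptake measured by scintillation proximity on Cytostar plates.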
row,IC50,Molecule
1,0.683 µM,"N#Cc1cc(S(=O)(=O)Nc2ccc(F)cn2)ccc1Oc1ccc(F)c(C(F)(F)F)c1 [Example 48, 3-cyano-N-(5-fluoropyridin-2-yl)-4-[4-fluoro-3-(trifluoromethyl)phenoxy]benzenesulfonamide]"
2,> 1.38 µM,"CC(C)c1ccccc1Oc1ccc(S(=O)(=O)Nc2ccc(F)cn2)cc1C#N [Example 49, 3-cyano-N-(5-fluoropyridin-2-yl)-4-[2-(propan-2-yl)phenoxy]benzenesulfonamide]"
3,0.177 µM,"COc1c(F)ccc(Oc2ccc(S(=O)(=O)Nc3ccc(F)cn3)cc2C#N)c1Cl [Example 112, 4-(2-chloro-4-fluoro-3-methoxyphenoxy)-3-cyano-N-(5-fluoropyridin-2-yl)benzenesulfonamide]"
4,0.129 µM,"COc1ccc(Oc2ccc(S(=O)(=O)Nc3ccc(F)cn3)cc2C#N)cn1 [Example 199, 3-cyano-N-(5-fluoropyridin-2-yl)-4-[(6-methoxypyridin-3-yl)oxy]benzenesulfonamide]"
5,> 10 µM,"N#Cc1cc(S(=O)(=O)Nc2ccc(F)cn2)ccc1Oc1cccc(C(F)(F)F)c1 [Example 23, 3-cyano-N-(5-fluoropyridin-2-yl)-4-[3-(trifluoromethyl)phenoxy]benzenesulfonamide]"
6,0.043 µM,"N#Cc1cc(S(=O)(=O)Nc2ccc(F)cn2)ccc1Oc1ccc(F)c(F)c1 [Example 77, 3-cyano-4-(3,4-difluorophenoxy)-N-(5-fluoropyridin-2-yl)benzenesulfonamide]"
7,> 7.67 µM,"N#Cc1ccc(Oc2ccc(S(=O)(=O)Nc3ccncn3)cc2C#N)cc1Cl [Example 87, 4-(3-chloro-4-cyanophenoxy)-3-cyano-N-(pyrimidin-4-yl)benzenesulfonamide]"
8,> 10 µM,"N#Cc1cc(S(=O)(=O)Nc2ccc(F)cn2)ccc1Oc1cccc(OC(F)(F)F)c1 [Example 18, 3-cyano-N-(5-fluoropyridin-2-yl)-4-[3-(trifluoromethoxy)phenoxy]benzenesulfonamide]"
9,0.106 µM,N#Cc1cc(S(=O)(=O)Nc2ccc(F)cn2)ccc1Oc1ccc(Cl)c(CO)c1 [compound 240]
10,> 10 µM,"CC(C)c1cccc(Oc2ccc(S(=O)(=O)Nc3ccc(F)cn3)cc2C#N)c1 [Example 57, 3-cyano-N-(5-fluoropyridin-2-yl)-4-[3-(propan-2-yl)phenoxy]benzenesulfonamide]"
11,3.13 µM,"COc1cccnc1NS(=O)(=O)c1ccc(Oc2ccc(C#N)c(Cl)c2)c(C#N)c1 [Example 102, 4-(3-chloro-4-cyanophenoxy)-3-cyano-N-(3-methoxypyridin-2-yl)benzenesulfonamide]"
12,0.096 µM,"Cc1cc(F)ccc1Oc1ccc(S(=O)(=O)Nc2ccc(F)cn2)cc1C#N [Example 145, 3-cyano-4-(4-fluoro-2-methylphenoxy)-N-(5-fluoropyridin-2-yl)benzenesulfonamide]"
13,0.215 µM,"Cc1cc(Oc2ccc(S(=O)(=O)Nc3ccc(F)cn3)cc2C#N)cc(Cl)c1C [Example 171, 4-(3-chloro-4,5-dimethylphenoxy)-3-cyano-N-(5-fluoropyridin-2-yl)benzenesulfonamide]"
14,> 10 µM,"COc1cccc(Oc2ccc(S(=O)(=O)Nc3ccc(F)cn3)cc2C#N)c1 [Example 208, 3-cyano-N-(5-fluoropyridin-2-yl)-4-(3-methoxyphenoxy)benzenesulfonamide]"
15,0.091 µM,"Cc1cccc(Cl)c1Oc1ccc(S(=O)(=O)Nc2ccc(F)cn2)cc1C#N [Example 123, 4-(2-chloro-6-methylphenoxy)-3-cyano-N-(5-fluoropyridin-2-yl)benzenesulfonamide]"
16,0.024 µM,"COc1cccc(C)c1Oc1ccc(S(=O)(=O)Nc2ccc(F)cn2)cc1C#N [Example 115, 3-cyano-N-(5-fluoropyridin-2-yl)-4-(2-methoxy-6-methylphenoxy)benzenesulfonamide]"
17,0.05 µM,"N#Cc1cc(S(=O)(=O)Nc2ccc(F)cn2)ccc1Oc1ccc(Cl)cc1F [Example 47, 4-(4-chloro-2-fluorophenoxy)-3-cyano-N-(5-fluoropyridin-2-yl)benzenesulfonamide]"
18,0.092 µM,"N#Cc1cc(Oc2ccc(S(=O)(=O)Nc3ccc(F)cn3)cc2C#N)ccc1Cl [Example 60, 4-(4-chloro-3-cyanophenoxy)-3-cyano-N-(5-fluoropyridin-2-yl)benzenesulfonamide]"
19,0.062 µM,N#Cc1ccc(NS(=O)(=O)c2ccc(Oc3ccc(F)c(Cl)c3)c(C#N)c2)nc1 [compound 230]
20,0.003 µM,"N#Cc1cc(S(=O)(=O)Nc2ccc(F)cn2)ccc1Oc1cc(Cl)c(C#N)c(Cl)c1 [Example 241, 3-cyano-4-(3,5-dichloro-4-cyanophenoxy)-N-(5-fluoropyridin-2-yl)benzenesulfonamide]"

row,IC50,Molecule
1,0.088 µM,Cc1ncc(Oc2ccc(S(=O)(=O)Nc3ccc(F)cn3)cc2C#N)cc1Cl [compound 238]
2,> 10 µM,"N#Cc1cc(S(=O)(=O)Nc2ccc(F)cn2)ccc1Oc1cccnc1 [Example 194, 3-cyano-N-(5-fluoropyridin-2-yl)-4-(pyridin-3-yloxy)benzenesulfonamide]"
3,> 10 µM,"N#Cc1c(Cl)cccc1Oc1ccc(S(=O)(=O)Nc2cccnc2)cc1 [Example 219, 4-(3-chloro-2-cyanophenoxy)-N-(pyridin-3-yl)benzenesulfonamide]"
4,1.02 µM,"N#Cc1cc(S(=O)(=O)Nc2ccc(F)cn2)ccc1Oc1cc(F)ccc1Cl [Example 176, 4-(2-chloro-5-fluorophenoxy)-3-cyano-N-(5-fluoropyridin-2-yl)benzenesulfonamide]"
5,2.21 µM,"N#Cc1cc(S(=O)(=O)Nc2ccc(F)cn2)ccc1Oc1cccc(C#N)c1F [Example 75, 3-cyano-4-(3-cyano-2-fluorophenoxy)-N-(5-fluoropyridin-2-yl)benzenesulfonamide]"
6,1.15 µM,CC(C)(O)c1ccc(Oc2ccc(S(=O)(=O)Nc3ccc(F)cn3)cc2C#N)cc1 [compound 234]
7,0.074 µM,"COc1ccc(Oc2ccc(S(=O)(=O)Nc3ccc(F)cn3)cc2C#N)c(C)c1 [Example 201, 3-cyano-N-(5-fluoropyridin-2-yl)-4-(4-methoxy-2-methylphenoxy)benzenesulfonamide]"
8,0.385 µM,"Cc1ncccc1Oc1ccc(S(=O)(=O)Nc2ccc(F)cn2)cc1C#N [Example 184, 3-cyano-N-(5-fluoropyridin-2-yl)-4-[(2-methylpyridin-3-yl)oxy]benzenesulfonamide]"
9,> 10 µM,"N#Cc1cc(S(=O)(=O)Nc2ccc(F)cn2)ccc1Oc1ccc(C(F)(F)F)cc1 [Example 54, 3-cyano-N-(5-fluoropyridin-2-yl)-4-[4-(trifluoromethyl)phenoxy]benzenesulfonamide]"
10,> 10 µM,"N#Cc1cc(S(=O)(=O)Nc2ccc(F)cn2)ccc1Oc1cc(C(F)(F)F)ccc1F [Example 4, 3-cyano-N-(5-fluoropyridin-2-yl)-4-[2-fluoro-5-(trifluoromethyl)phenoxy]benzenesulfonamide]"
11,0.05 µM,"N#Cc1cc(S(=O)(=O)Nc2ccc(F)cn2)ccc1Oc1ccc(F)c(F)c1Cl [Example 167, 4-(2-chloro-3,4-difluorophenoxy)-3-cyano-N-(5-fluoropyridin-2-yl)benzenesulfonamide]"
12,0.008 µM,"N#Cc1cc(S(=O)(=O)Nc2ccc(F)cn2)ccc1Oc1cc(F)c(C#N)c(Cl)c1 [compound 237, 4-(3-chloro-4-cyano-5-fluorophenoxy)-3-cyano-N-(5-fluoropyridin-2-yl)benzenesulfonamide]"
13,0.095 µM,"Cc1cc(Oc2ccc(S(=O)(=O)Nc3ccc(F)cn3)cc2C#N)cc(C)c1Cl [Example 149, 4-(4-chloro-3,5-dimethylphenoxy)-3-cyano-N-(5-fluoropyridin-2-yl)benzenesulfonamide]"
14,> 10 µM,"N#Cc1cc(S(=O)(=O)Nc2ccc(F)cn2)ccc1Oc1ccc(OC(F)(F)F)cc1 [Example 35, 3-cyano-N-(5-fluoropyridin-2-yl)-4-[4-(trifluoromethoxy)phenoxy]benzenesulfonamide]"
15,0.212 µM,"N#Cc1cc(S(=O)(=O)Nc2ccc(F)cn2)ccc1Oc1cc(F)cc(F)c1Cl [Example 32, 4-(2-chloro-3,5-difluorophenoxy)-3-cyano-N-(5-fluoropyridin-2-yl)benzenesulfonamide]"
16,> 0.728 µM,"N#Cc1cc(S(=O)(=O)Nc2ccc(F)cn2)ccc1Oc1cccc(Cl)c1C#N [Example 179, 4-(3-chloro-2-cyanophenoxy)-3-cyano-N-(5-fluoropyridin-2-yl)benzenesulfonamide]"
17,0.053 µM,N#Cc1cc(S(=O)(=O)Nc2ccc(F)cn2)ccc1Oc1cnc(OC(F)F)c(Cl)c1 [compound 231]
18,0.039 µM,"Cc1cc(Oc2ccc(S(=O)(=O)Nc3ccc(F)cn3)cc2C#N)ccc1C#N [Example 61, 3-cyano-4-(4-cyano-3-methylphenoxy)-N-(5-fluoropyridin-2-yl)benzenesulfonamide]"
19,0.134 µM,"Cc1ccc(Cl)c(C)c1Oc1ccc(S(=O)(=O)Nc2ccc(F)cn2)cc1C#N [Example 169, 4-(3-chloro-2,6-dimethylphenoxy)-3-cyano-N-(5-fluoropyridin-2-yl)benzenesulfonamide]"
20,0.267 µM,"N#Cc1cc(S(=O)(=O)Nc2ccc(F)cn2)ccc1Oc1ccc(C#N)c(C(F)(F)F)c1 [Example 6, 3-cyano-4-[4-cyano-3-(trifluoromethyl)phenoxy]-N-(5-fluoropyridin-2-yl)benzenesulfonamide]"

row,Molecule,IC50
1,"Cc1cc(Oc2ccc(S(=O)(=O)Nc3ccc(F)cn3)cc2C#N)cc(C)c1C#N [Example 79, 3-cyano-4-(4-cyano-3,5-dimethylphenoxy)-N-(5-fluoropyridin-2-yl)benzenesulfonamide]",0.007 µM
2,4-{4-chloro-2-[D3-methyloxy]phenoxy}-3-cyano-N-(pyridazin-3-yl)benzenesulfonamide [Example 82],0.409 µM
3,"N#Cc1cc(S(=O)(=O)Nc2ccc(F)cn2)ccc1Oc1ccc(Cl)cc1I [Example 58, 4-(4-chloro-2-iodophenoxy)-3-cyano-N-(5-fluoropyridin-2-yl)benzenesulfonamide]",0.287 µM
